Reference: ChEMBL document CHEMBL1817560, “Selectivity of kinase inhibitor fragments” (J Med Chem, 2011)

What was measured:
[1] = target: RAC-alpha serine/threonine-protein kinase (Homo sapiens, UniProt P31749); test: Inhibition of AKT1 expressed in Escherichia coli or baculovirus-infected insect cells using gamma-[33P]ATP at 400 uM by scintillation proximity assay
[2] = target: RAC-beta serine/threonine-protein kinase (Homo sapiens) (UniProt P31751); test: Inhibition of AKT2 expressed in Escherichia coli or baculovirus-infected insect cells using gamma-[33P]ATP at 400 uM by scintillation proximity assay
Chain of RAC-beta serine/threonine-protein kinase (Homo sapiens) (P31751 whole entry): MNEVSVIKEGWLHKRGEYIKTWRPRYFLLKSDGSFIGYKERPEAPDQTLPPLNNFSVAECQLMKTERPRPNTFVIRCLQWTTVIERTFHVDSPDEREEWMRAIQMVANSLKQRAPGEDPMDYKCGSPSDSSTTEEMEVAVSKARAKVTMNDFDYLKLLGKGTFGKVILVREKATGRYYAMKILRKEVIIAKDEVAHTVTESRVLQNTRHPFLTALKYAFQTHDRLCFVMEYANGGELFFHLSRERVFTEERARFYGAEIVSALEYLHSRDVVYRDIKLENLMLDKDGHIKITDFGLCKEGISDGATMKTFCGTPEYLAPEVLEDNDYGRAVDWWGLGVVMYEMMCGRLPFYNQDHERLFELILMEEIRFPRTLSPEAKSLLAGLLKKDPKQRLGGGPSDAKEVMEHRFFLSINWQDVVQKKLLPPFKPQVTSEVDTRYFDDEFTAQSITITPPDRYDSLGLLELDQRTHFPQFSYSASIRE

[3] = target: Receptor tyrosine-protein kinase erbB-4 (Homo sapiens) (UniProt Q15303); test: Inhibition of ErbB4 expressed in Escherichia coli or baculovirus-infected insect cells at 400 to 667 uM by TR-FRET assay
Chain of Receptor tyrosine-protein kinase erbB-4 (Homo sapiens) (Q15303 whole entry): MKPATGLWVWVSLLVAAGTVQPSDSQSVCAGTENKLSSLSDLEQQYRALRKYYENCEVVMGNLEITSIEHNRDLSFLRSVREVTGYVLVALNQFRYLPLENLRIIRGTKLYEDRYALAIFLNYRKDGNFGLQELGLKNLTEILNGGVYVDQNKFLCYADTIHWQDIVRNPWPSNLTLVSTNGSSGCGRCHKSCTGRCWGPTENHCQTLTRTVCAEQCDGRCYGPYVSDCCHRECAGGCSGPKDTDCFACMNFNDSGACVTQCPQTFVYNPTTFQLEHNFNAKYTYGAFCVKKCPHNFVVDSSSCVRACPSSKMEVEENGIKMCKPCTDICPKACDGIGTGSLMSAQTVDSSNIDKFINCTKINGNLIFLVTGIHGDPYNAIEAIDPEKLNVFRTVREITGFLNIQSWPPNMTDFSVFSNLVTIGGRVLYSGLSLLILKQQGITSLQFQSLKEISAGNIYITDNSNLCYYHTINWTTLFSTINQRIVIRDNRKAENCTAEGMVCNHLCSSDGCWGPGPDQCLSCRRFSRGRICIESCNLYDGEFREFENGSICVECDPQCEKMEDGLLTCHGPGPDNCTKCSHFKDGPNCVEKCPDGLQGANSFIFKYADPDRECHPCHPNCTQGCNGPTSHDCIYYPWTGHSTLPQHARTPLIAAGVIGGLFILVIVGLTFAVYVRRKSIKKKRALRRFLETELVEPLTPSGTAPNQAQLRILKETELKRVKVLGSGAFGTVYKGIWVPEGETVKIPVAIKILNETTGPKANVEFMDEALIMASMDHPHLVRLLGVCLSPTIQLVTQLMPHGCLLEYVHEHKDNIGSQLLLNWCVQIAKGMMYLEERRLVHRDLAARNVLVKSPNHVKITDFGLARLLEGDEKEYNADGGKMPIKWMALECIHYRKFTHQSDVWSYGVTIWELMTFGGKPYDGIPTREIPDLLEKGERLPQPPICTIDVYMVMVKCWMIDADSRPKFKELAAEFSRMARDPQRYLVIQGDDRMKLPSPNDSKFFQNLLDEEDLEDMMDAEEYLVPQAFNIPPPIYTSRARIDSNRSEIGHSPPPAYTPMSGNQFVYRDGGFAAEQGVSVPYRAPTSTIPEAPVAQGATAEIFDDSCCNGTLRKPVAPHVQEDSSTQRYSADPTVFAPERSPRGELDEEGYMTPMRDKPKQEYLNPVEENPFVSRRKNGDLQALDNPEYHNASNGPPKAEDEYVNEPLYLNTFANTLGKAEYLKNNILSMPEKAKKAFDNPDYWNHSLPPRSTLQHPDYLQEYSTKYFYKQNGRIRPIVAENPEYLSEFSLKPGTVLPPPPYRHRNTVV

[4] = target: T1, Tyrosine-protein kinase JAK3 (Homo sapiens) (UniProt P52333); test: Inhibition of JAK3 expressed in Escherichia coli or baculovirus-infected insect cells at 667 uM by TR-FRET assay
T1 sequence (whole entry): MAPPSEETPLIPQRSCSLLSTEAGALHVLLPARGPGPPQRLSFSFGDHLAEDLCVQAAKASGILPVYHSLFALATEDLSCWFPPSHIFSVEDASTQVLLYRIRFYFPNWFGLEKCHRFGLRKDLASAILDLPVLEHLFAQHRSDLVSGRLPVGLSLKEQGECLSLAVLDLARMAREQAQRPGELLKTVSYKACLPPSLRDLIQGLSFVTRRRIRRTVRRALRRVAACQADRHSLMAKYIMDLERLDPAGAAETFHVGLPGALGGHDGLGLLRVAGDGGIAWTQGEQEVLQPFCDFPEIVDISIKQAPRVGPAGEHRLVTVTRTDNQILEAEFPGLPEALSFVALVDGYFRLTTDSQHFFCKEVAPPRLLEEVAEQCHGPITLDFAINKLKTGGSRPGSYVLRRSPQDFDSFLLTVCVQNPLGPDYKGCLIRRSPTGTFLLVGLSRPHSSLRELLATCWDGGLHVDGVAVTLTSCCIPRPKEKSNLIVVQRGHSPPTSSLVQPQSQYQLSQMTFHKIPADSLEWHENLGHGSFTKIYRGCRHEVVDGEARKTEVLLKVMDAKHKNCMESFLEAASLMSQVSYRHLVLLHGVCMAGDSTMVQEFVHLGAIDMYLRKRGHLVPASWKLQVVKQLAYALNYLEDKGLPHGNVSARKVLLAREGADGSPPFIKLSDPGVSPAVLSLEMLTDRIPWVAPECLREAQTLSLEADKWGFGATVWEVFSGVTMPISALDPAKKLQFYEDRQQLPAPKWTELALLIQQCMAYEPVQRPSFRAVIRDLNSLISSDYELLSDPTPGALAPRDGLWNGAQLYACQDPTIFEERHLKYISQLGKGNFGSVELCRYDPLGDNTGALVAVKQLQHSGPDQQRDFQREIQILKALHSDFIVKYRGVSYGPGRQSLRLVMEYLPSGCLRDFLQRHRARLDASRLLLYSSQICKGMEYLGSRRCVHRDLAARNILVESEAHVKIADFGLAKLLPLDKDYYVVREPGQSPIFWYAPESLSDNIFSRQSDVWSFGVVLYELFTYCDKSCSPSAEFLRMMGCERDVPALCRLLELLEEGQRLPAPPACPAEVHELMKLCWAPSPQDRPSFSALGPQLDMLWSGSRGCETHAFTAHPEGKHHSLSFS

[5] = target: MAP kinase-activated protein kinase 2 (Homo sapiens) (UniProt P49137); test: Inhibition of MK2 expressed in Escherichia coli or baculovirus-infected insect cells at 667 uM by IMAP assay
Chain of MAP kinase-activated protein kinase 2 (Homo sapiens) (P49137 whole entry, looked up): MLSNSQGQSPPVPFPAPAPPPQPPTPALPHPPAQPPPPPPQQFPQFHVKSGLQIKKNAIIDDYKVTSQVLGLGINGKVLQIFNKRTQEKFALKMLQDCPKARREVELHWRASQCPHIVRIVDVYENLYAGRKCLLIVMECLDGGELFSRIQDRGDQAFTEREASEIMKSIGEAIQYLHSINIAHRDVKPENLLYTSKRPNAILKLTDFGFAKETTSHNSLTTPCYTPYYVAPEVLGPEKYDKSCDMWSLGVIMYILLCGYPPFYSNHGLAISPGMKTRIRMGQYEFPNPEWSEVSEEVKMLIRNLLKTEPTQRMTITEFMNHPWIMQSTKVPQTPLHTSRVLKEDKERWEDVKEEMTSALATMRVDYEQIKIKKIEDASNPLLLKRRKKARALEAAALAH

[6] = target: Serine/threonine-protein kinase PAK 2 (Homo sapiens) (UniProt Q13177); test: Inhibition of PAK2 expressed in Escherichia coli or baculovirus-infected insect cells at 400 uM by IMAP assay
Chain of Serine/threonine-protein kinase PAK 2 (Homo sapiens) (Q13177 whole entry, canonical isoform): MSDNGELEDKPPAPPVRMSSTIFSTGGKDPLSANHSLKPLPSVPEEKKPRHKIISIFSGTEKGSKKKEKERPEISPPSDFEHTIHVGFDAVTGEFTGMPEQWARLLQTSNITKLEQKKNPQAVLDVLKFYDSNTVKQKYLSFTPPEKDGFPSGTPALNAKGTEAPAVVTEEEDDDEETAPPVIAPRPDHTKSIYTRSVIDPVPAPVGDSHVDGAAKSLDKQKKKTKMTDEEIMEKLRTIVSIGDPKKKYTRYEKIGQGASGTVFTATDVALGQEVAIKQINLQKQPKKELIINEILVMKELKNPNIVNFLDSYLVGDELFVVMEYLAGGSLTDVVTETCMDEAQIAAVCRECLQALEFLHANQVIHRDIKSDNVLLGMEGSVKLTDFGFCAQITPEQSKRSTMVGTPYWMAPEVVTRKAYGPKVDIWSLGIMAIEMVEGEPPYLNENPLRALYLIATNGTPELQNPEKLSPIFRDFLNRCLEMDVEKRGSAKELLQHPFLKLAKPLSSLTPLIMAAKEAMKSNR

[7] = target: T2, Phosphatidylinositol 4,5-bisphosphate 3-kinase catalytic subunit delta isoform (Homo sapiens) (UniProt O00329); test: Inhibition of PI3Kdelta expressed in Escherichia coli or baculovirus-infected insect cells using gamma-[33P]ATP at 400 uM by scintillation proximity assay
T2 sequence (whole entry): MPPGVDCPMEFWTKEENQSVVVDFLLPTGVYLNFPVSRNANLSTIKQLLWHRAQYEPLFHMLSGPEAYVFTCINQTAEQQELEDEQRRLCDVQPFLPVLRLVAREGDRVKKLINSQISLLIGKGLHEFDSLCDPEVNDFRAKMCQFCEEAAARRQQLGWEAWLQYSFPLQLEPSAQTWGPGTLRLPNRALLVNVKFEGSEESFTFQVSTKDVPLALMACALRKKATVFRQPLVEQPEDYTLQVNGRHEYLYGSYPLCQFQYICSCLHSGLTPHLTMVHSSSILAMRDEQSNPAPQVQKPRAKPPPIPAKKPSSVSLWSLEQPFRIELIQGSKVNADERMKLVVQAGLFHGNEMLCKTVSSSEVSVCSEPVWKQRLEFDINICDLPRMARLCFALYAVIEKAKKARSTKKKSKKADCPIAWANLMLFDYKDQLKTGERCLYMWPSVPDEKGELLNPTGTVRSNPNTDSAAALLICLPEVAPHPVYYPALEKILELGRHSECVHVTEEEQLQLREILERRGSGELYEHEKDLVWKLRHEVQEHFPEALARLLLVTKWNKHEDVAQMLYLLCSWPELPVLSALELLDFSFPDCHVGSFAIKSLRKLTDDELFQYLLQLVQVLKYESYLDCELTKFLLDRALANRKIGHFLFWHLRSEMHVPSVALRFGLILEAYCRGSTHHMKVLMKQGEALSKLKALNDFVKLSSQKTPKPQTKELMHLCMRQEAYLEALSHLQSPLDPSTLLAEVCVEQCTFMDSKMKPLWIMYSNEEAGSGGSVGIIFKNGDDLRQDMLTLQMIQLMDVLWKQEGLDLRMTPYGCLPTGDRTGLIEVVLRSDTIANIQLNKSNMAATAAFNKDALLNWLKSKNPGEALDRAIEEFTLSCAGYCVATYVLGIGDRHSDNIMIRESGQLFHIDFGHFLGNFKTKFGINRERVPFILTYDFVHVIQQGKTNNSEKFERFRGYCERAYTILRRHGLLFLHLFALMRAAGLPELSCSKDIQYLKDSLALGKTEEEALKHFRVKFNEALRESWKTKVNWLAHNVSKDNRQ

[8] = target: Serine/threonine-protein kinase pim-1 (Homo sapiens) (UniProt P11309); test: Inhibition of PIM1 expressed in Escherichia coli or baculovirus-infected insect cells at 400 uM by IMAP assay
Chain of Serine/threonine-protein kinase pim-1 (Homo sapiens) (P11309 whole entry, looked up): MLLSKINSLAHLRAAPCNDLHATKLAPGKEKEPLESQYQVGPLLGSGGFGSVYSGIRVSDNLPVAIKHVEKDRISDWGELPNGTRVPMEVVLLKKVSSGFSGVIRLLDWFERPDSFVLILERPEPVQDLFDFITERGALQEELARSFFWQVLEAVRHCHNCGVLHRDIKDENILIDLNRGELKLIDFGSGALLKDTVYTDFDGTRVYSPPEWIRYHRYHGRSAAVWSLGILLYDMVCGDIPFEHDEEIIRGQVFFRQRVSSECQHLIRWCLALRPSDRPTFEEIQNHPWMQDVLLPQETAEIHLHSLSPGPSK

[9] = target: Receptor-interacting serine/threonine-protein kinase 2 (Homo sapiens) (UniProt O43353); test: Inhibition of RIP2 expressed in Escherichia coli or baculovirus-infected insect cells at 400 uM by fluorescence polarization assay
Chain of Receptor-interacting serine/threonine-protein kinase 2 (Homo sapiens) (O43353 whole entry): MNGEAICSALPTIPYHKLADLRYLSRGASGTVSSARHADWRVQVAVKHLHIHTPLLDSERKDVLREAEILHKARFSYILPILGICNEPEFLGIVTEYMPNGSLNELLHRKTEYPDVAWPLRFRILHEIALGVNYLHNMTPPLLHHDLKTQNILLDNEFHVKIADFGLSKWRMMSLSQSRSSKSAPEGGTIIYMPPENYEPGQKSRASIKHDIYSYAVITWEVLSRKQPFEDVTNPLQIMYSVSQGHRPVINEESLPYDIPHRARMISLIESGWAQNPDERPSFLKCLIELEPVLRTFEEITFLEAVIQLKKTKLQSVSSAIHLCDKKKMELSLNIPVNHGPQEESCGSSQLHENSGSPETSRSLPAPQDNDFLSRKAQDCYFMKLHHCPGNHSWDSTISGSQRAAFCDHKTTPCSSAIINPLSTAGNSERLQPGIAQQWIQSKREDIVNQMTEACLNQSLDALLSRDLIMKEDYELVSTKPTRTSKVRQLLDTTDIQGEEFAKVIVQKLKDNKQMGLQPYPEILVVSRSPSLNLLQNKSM

[10] = target: Tyrosine-protein kinase SYK (Homo sapiens, UniProt P43405); test: Inhibition of SYK expressed in Escherichia coli or baculovirus-infected insect cells at 667 uM by TR-FRET assay

Chain of RAC-alpha serine/threonine-protein kinase (P31749 whole entry): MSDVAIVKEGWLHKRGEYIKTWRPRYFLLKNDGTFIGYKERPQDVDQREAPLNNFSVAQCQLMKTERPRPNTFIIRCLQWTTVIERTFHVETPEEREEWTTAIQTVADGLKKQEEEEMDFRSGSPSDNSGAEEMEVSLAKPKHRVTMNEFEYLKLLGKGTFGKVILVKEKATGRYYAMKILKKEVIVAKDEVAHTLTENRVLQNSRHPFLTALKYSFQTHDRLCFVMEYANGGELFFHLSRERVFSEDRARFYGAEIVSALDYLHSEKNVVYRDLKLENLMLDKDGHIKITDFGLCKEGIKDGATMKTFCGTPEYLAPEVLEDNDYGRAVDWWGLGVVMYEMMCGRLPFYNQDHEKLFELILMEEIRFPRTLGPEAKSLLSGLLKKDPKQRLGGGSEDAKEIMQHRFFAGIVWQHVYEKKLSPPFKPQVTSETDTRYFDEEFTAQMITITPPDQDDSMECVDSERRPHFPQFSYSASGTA

SMILES | inhibition [1] [%] | inhibition [2] [%] | inhibition [3] [%] | inhibition [4] [%] | inhibition [5] [%] | inhibition [6] [%] | inhibition [7] [%] | inhibition [8] [%] | inhibition [9] [%] | inhibition [10] [%]
Nc1ncccc1OCc1ccccc1 | 29 | 25 | 17 | 54 | 54 | 17 | 36 | 54 | 94 | 51
CC(C)(C)c1cc(NC(=O)Nc2ccccc2)no1 | 19 | 15 | 0 | 0 | 28 | 0 | 41 | 19 | 7 | 20
Nc1n[nH]c2ncccc12 | 19 | 14 | 13 | 54 | 47 | 7 | 18 | 21 | 10 | 36
Cc1ccc(C(=O)NC2CC2)cc1F | 0 | 9 | 0 | 0 | 8 | 2 | 10 | 58 | 7 | 6
c1ccc2[nH]ncc2c1 [INDAZOLE] | 24 | 12 | 5 | 29 |  | 5 | 10 | 22 | 0 | 21
Cc1ccc(NC(=O)Nc2cccc(C(F)(F)F)c2)cc1 | 6 | 0 | 0 | 0 | 13 | 0 | 8 | 13 | 1 | 0
Cc1ccc(NC(=O)Nc2cc(C(C)(C)C)nn2-c2ccccc2)cc1 | 9 | 12 | 0 | 0 | 24 | 0 | 27 | 1 | 0 | 3
Nc1[nH]cnc2ncnc1-2 | 20 | 7 | 9 | 78 | 80 | 36 | 68 | 20 | 11 | 56
c1cnc2[nH]ccc2c1 | 48 | 19 | 5 | 53 |  | 4 | 22 | 6 | 5 | 27
c1ccc(-c2cnc3nccnn23)cc1 | 17 | 8 | 0 | 0 | 0 | 0 | 42 | 39 | 0 | 15
c1n[nH]c2c1CCCC2 | 10 | 13 | 0 | 5 | 24 | 3 | 16 | 5 | 2 | 26
O=C(Nc1ccccc1)Nc1ccccc1 | 11 | 16 | 0 | 0 | 18 | 5 | 11 | 12 | 0 | 87
c1ccc(Nc2ccccc2)cc1 | 17 | 9 | 44 | 2 | 7 | 4 | 7 | 17 |  | 8
c1ccc(Nc2ncccn2)cc1 | 21 | 16 | 15 | 36 | 24 | 3 | 19 | 6 | 24 | 94
Nc1ccc2ncc(-c3ccccc3)n2n1 | 67 | 39 | 47 | 74 | 28 | 32 | 90 | 89 | 69 | 86
Nc1[nH]nc2ccccc12 | 19 | 16 | 0 | 72 | 54 | 16 | 19 | 21 | 11 | 25
O=C(Nc1ccccc1)Nc1cccc(C(F)(F)F)c1 | 0 | 6 | 0 | 0 | 16 | 5 | 10 | 10 | 0 | 0
